In patent EP1285971B1, “Methods for the phenotypic and genotypic assessment of the drug sensitivity of HIV integrase variants” (Tibotec Pharmaceuticals Ltd., priority 2001, dated 2003):
Where two headings read alike, the source gives them in different places.

Columns and labels:
[1] = system: pHXB2D control; assay: Antiviral experiment with control clone, transfected directly without recombination; assay type: cell-based, HIV; settings: AVE 6, pHXB2D control, no recombination
Protocol: Recombinant virus was produced by co-transfection by electroporation of the SmaI-linearized IN-deletion construct and the integrase amplicon into MT4 cells or MT4 cells equipped with an LTR driven reporter gene construct. Production of recombinant virus was evaluated by scoring the cytopathogenic effect (CPE) that is induced by HIV-infection of MT4 cells or by the LTR-driven reporter signal induced by HIV infection in MT4 reporter cells. Green fluorescent protein was used as the reporter signal. Viruses are harvested and titrated at maximum CPE. For recombination the deletion construct pSV40HXB2D-ΔIN was used. Recombination experiments were performed with amplicon from wildtype HIV IIIB and NL4.3, and patient sample 146514 generated by both primer sets. For each recombination 2 µg amplicon was co-transfected with 10 µg SmaI-digested pSV40HXB2D-ΔIN by electroporation into MT4-LTR-EGFP cells. Virus stocks were titrated and tested in an antiviral experiment on a reference panel including nucleoside reverse transcriptase inhibitors (NRTI), non- nucleoside reverse transcriptase inhibitors (NNRTI), protein inhibitor (PR), entry and integrase (IN) inhibitors (Table 2). Recombination was checked by nucleic acid sequence analysis using protocols known to the person skilled in the art. Sequencing primers which can be used are In_seq1F (SEQ ID NO 17), In_seq2F (SEQ ID NO 18), In_seq3F (SEQ ID NO 19), IN_seq1R (SEQ ID NO 20), IN_seq2R (SEQ ID NO 21), and IN_seq3R (SEQ ID NO 22). The recombinant virus was evaluated in an anti-viral assay with a panel of reference compounds including nucleoside RT inhibitors (NRTI) Zidovudine (AZT) Lamivudine (3TC), Didanosine (DDI), non-nucleoside RT inhibitors (NNRTI) Nevirapine (NVP), 4-[[6-amino-5-bromo-2-[(4-cyanophenyl)amino]-4-pyrimidinyl]oxy]-3,5-dimethyl-benzonitrile also referred to as compound 1, 4-[[6-amino-5-bromo-2-[(4-cyanophenyl)amino]-4-pyrimidinyl]oxy]-3,5-dimethyl-Benzonitrile, also referred to as compound 2 protease inhibitors (PR) Saquinavir (SQV), Amprenavir (APV), Indinavir (IDV), [[…]-3-[[(4-aminophenyl)sulfonyl](2-methylpropyl)amino]-2-hydroxy-1-(phenylmethyl)-propyl]-, (3R,3aS,6aR)-hexahydrofuro[2,3-b]furan-3-yl ester carbamic acid also referred to as compound 3, entry-inhibitors (Entry)(AMD3100, DS5000, ATA), and integrase inhibitor (IN) 2-(1-methylethyloxy)-α,γ dioxo-5-(phenylmethyl)-benzenebutanoic acid also referred to as compound 4. […] AVE means antiviral experiment. Type means the type of inhibitor investigated. The fold change is the fold change in EC50. WT III B means that a portion of the wild type IIIB strain has been amplified and used in the antiviral experiment, including transfection and generation of recombinant virus. NL 4-3 means the integrase gene of this laboratory strain has been amplified and subsequently used for the antiviral experiment. […] No recombination has been effected using this HIV clone. pHXB2D has been used directly for transfection and antiviral experiment. Primer set 3 consist of outer primers 5'EGINT3 (SEQ ID NO 4) and 3'EGINT10 (SEQ ID NO 11), and inner primers 5'EGINT4 (SEQ ID NO 5) and 3'EGINT6 (SEQ ID NO 7). Primer set 4 consist of outer primers 5'EGINT3 (SEQ ID NO 4) and 3'EGINT10 (SEQ ID NO 11), and inner primers 5'EGINT5 […] and 3'EGINT6 (SEQ ID NO 7). Other suitable integrase inhibitors include L-731,988, diketo-acids and S-1360.

[2] = system: WT III B; assay: microbe, parasite or virus in culture; assay type: cell-based, HIV-1; settings: AVE 5, WT III B, primer set 4
Protocol: (§1) The integrase encoding sequence was amplified from either wildtype HIV-1 (IIIB) or NL4.3 virus, or HXB2D site-directed mutant viruses containing mutations in integrase (such as T66I, S153Y, M154I, or combinations thereof) (Hazuda et al., Science 2000, 287, 646-650), or patient samples. Starting from RNA, extracted from virus supernatant or plasma using the QIAamp® viral RNA extraction kit (Qiagen), cDNA was synthesized by reverse transcription (Expand TM reverse transcriptase, 30 min at 42°C) with the primer 3'EGINT10 (SEQ ID NO 11), followed by a nested PCR. The outer PCR was performed with the primers 5'EGINT1 (SEQ ID NO 1) and 3'EGINT10 (SEQ ID NO 11) (ΔR-IN-vif construct) or 5'EGINT3 (SEQ ID NO 4) and 3'EGINT10 (SEQ ID NO 11) (ΔIN construct) (Expand™ High Fidelity PCR system), and 5 µl of the outer product was used for an inner PCR with primers 5'EGINT2 (SEQ ID NO 3) and 3'EGINT11 (SEQ ID NO 12) (ΔR-IN-vif construct) or 5'EGINT4 (SEQ ID NO 5) and 3'EGINT6 (SEQ ID NO 7) (ΔIN construct). In a second protocol the outer primers were identical as described above, the inner primers are 5'EGINT5 (SEQ ID NO 6) and 3'EGINT6 (SEQ ID NO 7). The amplicons can be used for genotyping and phenotyping. Cycling conditions for both PCRs are denaturation for 3 min at 95°C, followed by 30 cycles of 1 min 90°C, 30 sec 55°C, and 2 min 72°C. A final extension was performed at 72°C for 10 min. For recombination, PCR products are purified using the QiaQuick® 96 PCR BioRobot kit (Qiagen), according to the manufacturer's protocol. If the protocol starts from DNA containing the HIV material such as proviral DNA, the reverse transcriptase step is not needed. The nested approach is also not needed when starting from proviral DNA. The obtained amplicons were sequenced using the primers: In_seq1F (SEQ ID NO 17), In_seq2F (SEQ ID NO 18), In_seq3F (SEQ ID NO 19), IN_seq1R (SEQ ID NO 20), IN_seq2R (SEQ ID NO 21), and IN_seq3R (SEQ ID NO 22).
(§2) A ΔR-IN-vif or ΔIN deletion construct was generated by site-directed mutagenesis on the template pSV40HXB2D with the primers MUT-IN1 (SEQ ID NO 13) and MUT-IN2 (ΔR-IN-vif construct) (SEQ ID NO 14) or MUT-IN3 (SEQ ID NO 15) and MUT-IN4 (SEQ ID NO 16) (ΔIN construct) (protocol Site-directed mutagenesis kit, Stratagene). After DpnI digestion for removal of the methylated template DNA, the construct was digested with SmaI and ligated to circulize the plasmid. The plasmid was transformed into competent cells such as Top10 cells, and colonies were screened for the presence of the deletion construct. The IN-deletion construct was checked by sequence analysis with primers 5'EGINT1 (SEQ ID NO 1) or […] and 3'EGINT10 (SEQ ID NO 11) or 3'EGINT11 (SEQ ID NO 12). For use in recombination experiments, large-scale plasmid DNA preparations were linearized by SmaI digestion and recombined with PCR amplified integrase genes from wild type, mutant, or patient viruses. The plasmid containing the integrase deletion (ΔIN) has been deposited pSV40HXB2D-ΔIN. The sequence of said plasmid is 14377 nucleotides long. The ΔR-IN-vif deletion construct is 13975 nucleotides long. The pSV40HXB2D-ΔIN was deposited at the Belgian Coordinated Collections of Micro-Organisms located at the Universiteit Gent - Laboratorium voor Moleculaire Biologie on August 5, 2002 and the accession number is LMBP 4574.
(§3) Recombinant virus was produced by co-transfection by electroporation of the SmaI-linearized IN-deletion construct and the integrase amplicon into MT4 cells or MT4 cells equipped with an LTR driven reporter gene construct. Production of recombinant virus was evaluated by scoring the cytopathogenic effect (CPE) that is induced by HIV-infection of MT4 cells or by the LTR-driven reporter signal induced by HIV infection in MT4 reporter cells.

[3] = system: NL 4-3; assay: microbe, parasite or virus in culture; assay type: cell-based, HIV-1; settings: for fold change: fold change in EC50; for EC50: read-out: EC 50
Protocol: as §1, §2, §3

[4] = system: patient_146514; assay: microbe, parasite or virus in culture; assay type: cell-based, HIV; settings: AVE 2, patient_146514, primer set 3
Protocol: as §1, §2, §3

**Q.** `CC(C)CN(C[C@@H](O)[C@H](Cc1ccccc1)NC(=O)O[C@H]1CO[C@H]2OCC[C@H]21)S(=O)(=O)c1ccc(N)cc1` [Compound 3, [(11S,2R)-3-[[(4-aminophenyl)sulfonyl](2-methylpropyl)amino]-2-hydroxy-1-(phenylmethyl)-propyl]-, (3R,3aS,6aR)-hexahydrofuro[2,3-b]furan-3-yl ester carbamic acid] was tested. Which EC50 [1] did it give?
**A.** The EC50 was 7.1 nM.

**Q.** What about the fold change ([1]; fold change in EC50) of the same compound?
**A.** The fold change was 1,0.

**Q.** What about the fold change ([2]; fold change in EC50) of the same compound?
**A.** Its fold change is 0,9.

**Q.** And the EC50 ([2]; read-out: EC 50)?
**A.** The EC50 was 6.3 nM.

**Q.** And the fold change ([3]; AVE 1, NL 4-3, primer set 3)?
**A.** Its fold change is 0,5.

**Q.** What about the EC50 ([3]; AVE 1, NL 4-3, primer set 3) of the same compound?
**A.** Its EC50 is 3.7 nM.

**Q.** And the fold change ([3]; AVE 4, NL4-3, primer set 4)?
**A.** Its fold change is 1,5.

**Q.** What about the EC50 ([3]; AVE 4, NL4-3, primer set 4) of the same compound?
**A.** Its EC50 is 10.9 nM.

**Q.** What about the fold change ([4]; fold change in EC50) of the same compound?
**A.** Its fold change is 2,2.

**Q.** And the EC50 ([4]; read-out: EC 50)?
**A.** Its EC50 is 15.6 nM.
